# Source: patent US8507526B2, “4- [2- (4-methylphenylsulfanyl) phenyl] piperidine for the treatment of irritable bowel syndrome (IBS)” (H. Lundbeck A/S, priority 2007, dated 2013)
# System: chronic constriction nerve injury, peripheral mononeuropathy
# Test: Chronic constriction nerve injury model of neuropathic pain (Von Frey filaments, Hargreaves Plantar Device)
# Type: in vivo
# Conditions: rats
# Text: A peripheral mononeuropathy was induced in the right hind limb of rats following a chronic constriction nerve injury, and the development of mechanical allodynia and thermal hyperalgesia was monitored using established behavioural tests (Von Frey filaments and the Hargreaves Plantar Device, respectively).
compound,measurement,setting,value
"Cc1ccc(Sc2ccccc2C2CCNCC2)cc1 [Compound I, 4-[2-(4-methylphenylsulfanyl)phenyl]piperidine]","paw withdrawal threshold, Von Frey filaments (mechanical allodynia)","subcutaneous 1.9, 4.8 and 7.9 mg/kg in 10% hydroxypropyl-betacyclodextrin, right hind paw",did not increase the paw withdrawal threshold
same,"paw withdrawal latency, thermal hyperalgesia (Hargreaves Plantar Device)",subcutaneous 4.8 and 7.9 mg/kg,significant increases in paw withdrawal latency
